# Measured values as given in ChEMBL document CHEMBL4330164, “Propolis Components from Stingless Bees Collected on South Sulawesi, Indonesia, and Their Xanthine Oxidase Inhibitory Activity” (J Nat Prod, 2019).
# Molecular target: Xanthine dehydrogenase/oxidase (Bos taurus, UniProt P80457)
# Assay: Inhibition of bovine milk xanthine oxidase assessed as reduction in uric acid production using xanthine as substrate after 10 mins by HPLC analysis; call rule not given here
# Sequence of Xanthine dehydrogenase/oxidase (P80457 whole entry): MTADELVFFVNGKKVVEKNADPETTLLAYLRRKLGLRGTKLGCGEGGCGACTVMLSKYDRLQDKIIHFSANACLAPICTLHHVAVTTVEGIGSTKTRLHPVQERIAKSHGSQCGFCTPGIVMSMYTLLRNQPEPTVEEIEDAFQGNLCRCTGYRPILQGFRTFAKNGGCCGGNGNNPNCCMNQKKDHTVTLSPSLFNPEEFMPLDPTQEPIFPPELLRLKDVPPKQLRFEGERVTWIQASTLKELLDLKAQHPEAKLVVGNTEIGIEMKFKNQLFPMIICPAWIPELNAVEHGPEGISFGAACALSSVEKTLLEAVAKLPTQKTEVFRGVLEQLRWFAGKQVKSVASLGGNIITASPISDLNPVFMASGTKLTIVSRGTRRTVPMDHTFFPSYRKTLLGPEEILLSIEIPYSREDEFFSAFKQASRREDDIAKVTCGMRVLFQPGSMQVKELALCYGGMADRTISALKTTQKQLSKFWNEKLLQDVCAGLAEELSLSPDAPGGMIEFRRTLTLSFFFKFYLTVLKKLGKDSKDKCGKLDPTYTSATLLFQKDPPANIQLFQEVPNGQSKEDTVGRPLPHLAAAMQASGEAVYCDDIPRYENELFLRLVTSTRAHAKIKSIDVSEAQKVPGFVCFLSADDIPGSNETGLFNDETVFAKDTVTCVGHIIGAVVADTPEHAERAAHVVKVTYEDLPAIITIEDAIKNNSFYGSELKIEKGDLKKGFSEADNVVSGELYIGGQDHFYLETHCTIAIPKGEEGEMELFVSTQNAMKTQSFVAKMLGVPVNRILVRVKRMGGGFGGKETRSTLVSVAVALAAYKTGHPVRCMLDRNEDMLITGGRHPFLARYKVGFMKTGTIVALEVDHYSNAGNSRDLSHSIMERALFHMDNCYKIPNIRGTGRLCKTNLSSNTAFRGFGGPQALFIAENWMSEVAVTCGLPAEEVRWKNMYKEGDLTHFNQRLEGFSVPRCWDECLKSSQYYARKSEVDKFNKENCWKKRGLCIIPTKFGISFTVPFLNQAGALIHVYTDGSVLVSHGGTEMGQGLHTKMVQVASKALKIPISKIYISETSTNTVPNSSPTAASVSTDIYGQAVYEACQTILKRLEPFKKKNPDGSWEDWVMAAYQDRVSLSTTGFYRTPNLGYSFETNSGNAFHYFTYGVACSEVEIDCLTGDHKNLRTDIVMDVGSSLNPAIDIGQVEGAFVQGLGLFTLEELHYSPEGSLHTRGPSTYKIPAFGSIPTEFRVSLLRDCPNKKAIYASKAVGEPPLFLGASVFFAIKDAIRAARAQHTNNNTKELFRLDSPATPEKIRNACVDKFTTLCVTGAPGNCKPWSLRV
smiles,measurement,setting,value
COc1cc(-c2c(O)c(=O)oc3cc(O)cc(O)c23)ccc1O,IC50,,3.9 µM
COc1cc([C@@H]2c3c(cc4c(c3OC)OCO4)C[C@@H]3COC[C@H]32)cc2c1OCO2,inhibition (INH),"cattle, 10 min",Active
